# Test results taken from patent publication US8828942B2, “Means for treating synucleinopathies” (Affiris AG, priority 2009, dated 2014).
# Entries after “also recorded” stand apart in the source; their conditions may differ.
# What was measured:
# [1] = test system: monoclonal antibody 12-9-9; assay: In vitro binding assay (ELISA) with monoclonal antibody 12-9-9; design: species or system mouse; key to Binding: 0: no binding to 12-9-9 detectable in ELISA; 1: weak binding: binding of mimotope weaker compared to the minimal original sequence p5436; 2: strong binding: binding of mimotope similar to the minimal original sequence p5436; details: for Binding: binding capacity to 12-9-9 in ELISA, peptide-BSA coated (1 μM), compared with p5436; for detection/binding by monoclonal antibody 12-9-9 in ELISA: result in words
# Excerpt: A monoclonal antibody derived from the fusion “AFFiRiS 6”: Balb/c mice (Charles River) were immunized with original alpha-synuclein epitope LGKNEEGAPQ-C (SEQ ID NO:3) coupled to BTG (bovine thyroglobuline) and CFA (complete Freund's adjuvant; first injection) as well as IFA (incomplete Freund's adjuvant; 3 booster injections) as adjuvant. LGKNEEGAPQ-peptide-specific (SEQ ID NO: 203) antibody-producing hybridomas are detected by ELISA (LGKNEEGAPQC-peptide-coated (SEQ ID NO: 3)ELISA plates). Human alpha-synuclein (recombinant protein, p4446) is used as positive control peptide: hybridomas recognizing the recombinant protein immobilized on ELISA plates are included because they are binding both peptide and full length alpha-synuclein specifically. […] The Hybridoma clone (12-9-9; IgG1, kappa) was analysed for specific detection of the natural human alpha-synuclein epitope LGKNEEGAPQ. (SEQ ID NO: 203). 12-9-9 recognizes the injected epitope as well as full length alpha-synuclein protein (recombinant protein; obtained from rPeptide, Bogart, Ga., USA) in ELISA (see FIG. 2). […] Thus the minimal required epitope for binding has been defined as KNEEGAP (SEQ ID NO: 139).
# Peptides derived from Phage Display as well as N-terminally truncated variants thereof were coupled to BSA and bound to ELISA plates (1 μM) and subsequently incubated with the monoclonal antibody that was used for the screening procedure to analyse binding capacity of identified peptides (see FIG. 4).
# [2] = In vivo testing of mimotopes: serum titer against injected peptide (ELISA); details: mice, 30 μg peptide coupled to KLH, alum, s.c.; titer by ELISA as OD halfmax
# Procedure: (§1) Inhibiting as well as non-inhibiting peptides were coupled to KLH and injected into mice (wildtype C57/B16 or BalbC mice; subcutaneous injection into the flank) together with an appropriate adjuvant (aluminium hydroxide). Animals were vaccinated 3 times in biweekly intervals and sera were taken biweekly as well. Titers to injected peptides as well as to an irrelevant peptide were determined with every serum. Titers against the recombinant human alpha-synuclein protein and recombinant human beta-synuclein were determined starting with Serum 2 respectively. In general sera were analysed by reaction against peptides coupled to Bovine Serum Albumin (BSA) and recombinant full length proteins which were immobilised on ELISA plates. Titers were determined using anti mouse IgG specific antibodies. For examples of immunogenicity against injected peptide and alpha-synuclein see Table 5 and Table 6.
# (§2) Female C57/B16 mice or BalbC, 5-6 mice per group, were subcutaneously immunized with 30 μg peptide coupled to KLH. Control groups were injected with PBS or the original epitope. As adjuvant alum was used. The peptides administered were all able to bind to monoclonal antibodies specifically binding aa100-109 of human alpha-synuclein although some of the peptides did inhibit the binding of the original epitope to its parental antibody in vitro only weakly (in an in vitro inhibition assay). The in vitro ELISA assay to determine the antibody titer was performed with sera of single mice (see Tab. 5) after each vaccination in a two week interval. The wells of the ELISA plate were coated with mimotope-BSA conjugates. The positive control was performed by reaction of the parental antibody with the respective mimotope-BSA conjugate. The detection was performed with anti-mouse IgG. Additionally, recombinant proteins were immobilised on ELISA plates and sera reacted accordingly. For all mimotopes tested in C57/B16 mice or BalbC, antibodies reacting to the individual injected peptide could be detected after repeated vaccination. Although not all mice induced higher titer against alpha-synuclein (see tab. 5 for examples).
# [3] = test system: monoclonal antibody 12-9-9; assay: In vitro inhibition assay (ELISA); assay type: binding, mouse; design: key: 0: no competition of 12-9-9 detectable in ELISA; 1: weak competition: competition of mimotope weaker compared to the minimal original sequence p5436; 2: strong competition: competition of mimotope similar to the minimal original sequence p5436; details: competition capacity in ELISA, peptide 400 μg/ml to 3 μg/ml, plates coated with p5436 and p4446
# Procedure: Different amounts of peptides (concentrations ranging from 400 μg/ml to 3 μg/ml (serial dilutions), derived from Phage Display were incubated with the monoclonal antibody that was used for the screening procedure. Peptides diminishing subsequent binding of the antibody to the original human alpha-synuclein epitope (p5436) and the human alpha-synuclein protein (p4446) coated on ELISA plates were considered as inhibiting in this assay.
# [4] = test system: recombinant human alpha-synuclein protein; assay: In vivo testing of mimotopes: serum titer against alpha-synuclein (ELISA); details: mice immunized with peptide-KLH, alum, OD halfmax
# Procedure: as §1, §2
Binding [1],detection/binding by monoclonal antibody 12-9-9 in ELISA [1],Sequence,Titer in animals OD halfmax injected pep. [2],Competition [3],class of immunogenicity: a Syn [4]
2,detected similarly,"KNAEGAPC [p5439, mimotope]",8000,1,1 (peptides inducing an immune response with OD halfmax between 1000 and 51.)
2,–,"KNDEGAPC [p5445, mimotope]",26000,2,2 (peptides inducing an immune response with OD halfmax higher than 1000.)
2,retained full binding capacities,"LGKNEEGAPC [p5402, reference compound]",20000,2,2 (peptides inducing an immune response with OD halfmax higher than 1000.)
2,–,"RNEEGAPC [p5443, mimotope]",9000,2,1 (peptides inducing an immune response with OD halfmax between 1000 and 51.)

Sequence,Binding [1],detection/binding by monoclonal antibody 12-9-9 in ELISA [1],Titer in animals OD halfmax injected pep. [2],Competition [3],class of immunogenicity: a Syn [4]
"KNEEGAPC [p5436, reference compound]",2,detected similarly; also recorded: retained full binding capacities,10000,2,2 (peptides inducing an immune response with OD halfmax higher than 1000.)
